Measured values: US8598078B2, “Condensed anthran I lami de derivatives as insecticides” (Syngenta Crop Protection, LLC, priority 2007, dated 2013)
Read-outs that look alike come from different tables or passages of the source.

Experiments:
Format in all cases: in vivo
[1] = tested on: Thrips tabaci (onion thrips); experiment: Activity against Thrips tabaci (mixed population, feeding/residual contact activity, preventive), sunflower leaf discs; details: foliar, 144 h, read-out: activity (mortality and special effects)
Description: Activity Against Thrips tabaci (Onion Thrips)
(§1) (Mixed Population, Feeding/Residual Contact Activity, Preventive)
Sunflower leaf discs were placed on agar in a 24-well microtiter plate and sprayed with test solutions. After drying, the leaf discs were infested with a thrips population of mixed ages. After an incubation period of 6 days, samples were checked for mortality and special effects (e.g. phytotoxicity).

[2] = tested on: Plutella xylostella (diamond back moth); experiment: Plutella xylostella (larvicide, feeding/residual contact activity, preventive), artificial diet MTP; details: 120 h, read-out: activity (larval mortality, antifeedant, growth regulation)
Description: Plutella xylostella (Diamond Back Moth)
(§2) (Larvicide, Feeding/Residual Contact Activity, Preventive)
24-well microtiter plate (MTP) with artificial diet was treated with test solutions by pipetting. After drying, the MTP's were infested with larvae (L2) (10-15 per well). After an incubation period of 5 days, samples were checked for larval mortality, antifeedant and growth regulation.

[3] = tested on: Heliothis virescens (tobacco budworm); experiment: Activity against Heliothis virescens (ovo-larvicide, feeding/contact activity, curative), eggs on artificial diet; details: read-out: activity (egg mortality, larval mortality, growth regulation)
Description: Activity Against Heliothis virescens (Tobacco Budworm)
(Ovo-Larvicide, Feeding/Contact Activity, Curative)
Eggs (0-24 h old) were placed in 24-well microtiter plate on artificial diet and treated with test solutions by pipetting. After an incubation period of 4 days, samples were checked for egg mortality, larval mortality, and growth regulation.

[4] = tested on: Myzus persicae (green peach aphid); experiment: Activity against Myzus persicae (mixed population, systemic/feeding activity, curative), pea seedling roots in test solution; details: 144 h, read-out: activity (mortality and special effects on the plant)
Source text: (§3) Activity Against Myzus persicae (Green Peach Aphid)
(Mixed Population, Systemic/Feeding Activity, Curative)
Roots of pea seedlings, infested with an aphid population of mixed ages, were placed directly in the test solutions. 6 days after introduction, samples were checked for mortality and special effects on the plant.

[5] = tested on: Diabrotica balteata (corn root worm); experiment: Diabrotica balteata (larvicide, feeding/residual contact activity, preventive), artificial diet MTP; details: 120 h, read-out: activity (larval mortality, antifeedant, growth regulation)
Description: Diabrotica balteata (Corn Root Worm)
as §2
24-well microtiter plate (MTP) with artificial diet was treated with test solutions by pipetting. After drying, the MTP's were infested with larvae (L2) (6-10 per well). After an incubation period of 5 days, samples were checked for larval mortality, antifeedant and growth regulation.

[6] = tested on: Spodoptera littoralis (Egyptian cotton leafworm); experiment: Activity against Spodoptera littoralis (larvicide, feeding/residual contact activity, preventive), cotton leaf discs; details: foliar, 72 h, read-out: activity (mortality, repellent effect, feeding behaviour, growth regulation)
Source text: Activity Against Spodoptera littoralis (Egyptian Cotton Leafworm)
as §2
Cotton leaf discs were placed on agar in a 24-well microtiter plate and sprayed with test solutions. After drying, the leaf discs were infested with 5 L1 larvae. The samples were checked for mortality, repellent effect, feeding behaviour, and growth regulation 3 days after treatment.

[7] = tested on: Nilaparvata lugens (brown rice planthopper); experiment: Activity against Nilaparvata lugens (larvicide, feeding/contact), rice seedlings; details: read-out: activity (mortality, growth regulation, effects on the F1 generation)
Description: Activity Against Nilaparvata lugens (Brown Rice Planthopper)
(Larvicide, Feeding/Contact)
Rice seedlings were treated with the diluted test solutions in a spray chamber. After drying, they were infested with 20 N3 nymphs (2 replicates). 6-12 days after the treatment samples were checked for mortality, growth regulation, and effects on the F, generation.

[8] = tested on: Myzus persicae (green peach aphid); experiment: Activity against Myzus persicae (mixed population, feeding/residual contact activity, preventive), sunflower leaf discs; details: foliar, 144 h, read-out: activity (mortality and special effects)
Description: as §3, §1
Sunflower leaf discs were placed on agar in a 24-well microtiter plate and sprayed with test solutions. After drying, the leaf discs were infested with an aphid population of mixed ages. After an incubation period of 6 days, samples were checked for mortality and special effects (e.g. phytotoxicity).

[9] = 400 ppm, L2 larvae on treated artificial diet, 5 days incubation
[10] = 400 ppm, eggs 0-24 h old on artificial diet, 4 days incubation
[11] = 400 ppm, L1 larvae on sprayed cotton leaf discs, 3 days after treatment
[12] = 400 ppm, N3 nymphs on sprayed rice seedlings, 6-12 days after treatment
[13] = 400 ppm, mixed-age aphids on sprayed sunflower leaf discs, 6 days incubation

Measured: mortality at 400 ppm

COCn1ncc2cc(Cl)c(NC(=O)c3cc(C(F)(F)F)nn3-c3ncccc3Cl)c(C(=O)NC(C)C)c21 [P.2]
> 80%: [1] | [2] | [3] | [4] | [5] | [6] | [7] | [8]

COCCOCn1cc2cc(C)c(NC(=O)c3cc(OC)nn3-c3ncccc3Cl)c(C(=O)NC(C)C)c2n1 [P.12, 6-{[2-(3-chloro-pyridin-2-yl)-5-methoxy-2H-pyrazole-3-carbonyl]-amino}-2-(2-methoxy-ethoxymethyl)-5-methyl-2H-indazole-7-carboxylic acid isopropylamide]
> 80%: [1] | [2] | [3] | [4] | [6] | [7] | [8]

COCn1ncc2cc(C)c(NC(=O)c3cc(OC)nn3-c3ncccc3Cl)c(C(=O)NC(C)C)c21 [P.19]
> 80%: [1] | [2] | [3] | [4] | [5] | [6] | [7] | [8]

CCCCCCCCCCCCCCCCOCCOCCOC(=O)n1cc2cc(C)c(NC(=O)c3cc(OC)nn3-c3ncccc3Cl)c(C(=O)NC(C)C)c2n1 [P.23]
> 80%: [1]; 400 ppm, mixed-age thrips on sprayed sunflower leaf discs, 6 days incubation | [2]; [9] | [3]; [10] | [5]; [9] | [6]; [11] | [7]; [12] | [8]; [13]

COc1cc(C(=O)Nc2c(C)cc3cn(C(=O)C(C)(C)C)nc3c2C(=O)NC(C)C)n(-c2ncccc2Cl)n1 [P.26]
> 80%: [2] | [3] | [4] | [5] | [6] | [7] | [8]

COc1cc(C(=O)Nc2c(C)cc3cn(C(=O)CC(C)(C)C)nc3c2C(=O)NC(C)C)n(-c2ncccc2Cl)n1 [P.27]
> 80%: [1] | [2] | [3] | [4] | [5] | [6] | [8]

CCCCCCCCCCCCOCCOC(=O)n1cc2cc(C)c(NC(=O)c3cc(OC)nn3-c3ncccc3Cl)c(C(=O)NC(C)C)c2n1 [P.29]
> 80%: [2]; [9] | [3]; [10] | [4]; 400 ppm, systemic, roots of infested pea seedlings in test solution, 6 days | [5]; [9] | [6]; [11] | [7]; [12] | [8]; [13]

COc1cc(C(=O)Nc2c(C)cc3cn(C(=O)C4(C)CCCCC4)nc3c2C(=O)NC(C)C)n(-c2ncccc2Cl)n1 [P.32]
> 80%: [1] | [2] | [3] | [4] | [5] | [6] | [8]
